Test results as given in the supplement of paper PMC8671470.

System: KU-812
Test: cell viability (% survival relative to DMSO control, bortezomib = 0%); higher = less cytotoxic
Conditions: 1 nM; 72 h
Summary of the method: (§1)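 Seeding density for each of the 10 AML and 5 CML cell lines was titrated to the linear growth range. Cells went into 384-well plates pre-printed in duplicate with compounds at 1, 10, 100, 1000 or 10000 nM and were held for 72 h at 37 °C with 5% CO2. CellTiter-Glo luminescence then provided the readout. Percent survival is expressed relative to vehicle at 100% and a 10 µM positive control at 0%, averaged over duplicates.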

Row | Structure (SMILES) | cell viability
1 | CCCCCCCCCCCCC/C=C/[C@@H](O)[C@H](CO)N(C)C [N,N-Dimethylsphingosine] | 101%
2 | CCCCCCCNC=O [N-Heptyl-Formamide] | 108%

Same assay, conditions: 10 nM; 72 h

Row | Structure (SMILES) | cell viability
3 | O=C(Oc1ccc([N+](=O)[O-])cc1)N1CCC(C(O)(c2ccc3c(c2)OCO3)c2ccc3c(c2)OCO3)CC1 [JZL184] | 102%
4 | O=C1N[C@@H]2[C@@H](O)[C@@H](O)[C@H](O)[C@@H](CO)N2C1=O [Kifunensine] | 98.4%
5 | CC(C)(CCCCCCCCCCC(C)(C)CC(=O)O)CC(=O)O [MEDICA 16] | 94.2%
6 | Cc1nnc(-c2ccc(N3CCC(Oc4ccccc4C(F)(F)F)CC3)nn2)s1 [MF-438] | 103%
7 | CC(C)c1ccc2c(c1)c(SC(C)(C)C)c(CC(C)(C)C(=O)O)n2Cc1ccc(Cl)cc1 [MK-886] | 97.3%
8 | O=C(CCl)N(CCCNC(=O)C(F)(F)F)c1ccc([N+](=O)[O-])cc1 [ML175] | 96.8%
9 | CN(C)C(=N)NC(=N)N [Metformin] | 95.5%
10 | Cl.OC[C@H]1NC[C@H](O)[C@@H](O)[C@H]1O [Migalastat] | 92.3%
11 | OCCN1C[C@H](O)[C@@H](O)[C@H](O)[C@H]1CO [Miglitol] | 103%
12 | CCCCCCCCCCCCC/C=C/[C@@H](O)[C@H](CO)N(C)C [N,N-Dimethylsphingosine] | 90.5%
13 | CCCCCCCNC=O [N-Heptyl-Formamide] | 97.3%

Same assay, conditions: 100 nM; 72 h

Row | Structure (SMILES) | cell viability
14 | O=C(Oc1ccc([N+](=O)[O-])cc1)N1CCC(C(O)(c2ccc3c(c2)OCO3)c2ccc3c(c2)OCO3)CC1 [JZL184] | 112%
15 | O=C1N[C@@H]2[C@@H](O)[C@@H](O)[C@H](O)[C@@H](CO)N2C1=O [Kifunensine] | 106%
16 | CC(C)(CCCCCCCCCCC(C)(C)CC(=O)O)CC(=O)O [MEDICA 16] | 101%
17 | Cc1nnc(-c2ccc(N3CCC(Oc4ccccc4C(F)(F)F)CC3)nn2)s1 [MF-438] | 83.9%
18 | CC(C)c1ccc2c(c1)c(SC(C)(C)C)c(CC(C)(C)C(=O)O)n2Cc1ccc(Cl)cc1 [MK-886] | 94.1%
19 | O=C(CCl)N(CCCNC(=O)C(F)(F)F)c1ccc([N+](=O)[O-])cc1 [ML175] | 89.7%
20 | CN(C)C(=N)NC(=N)N [Metformin] | 96.2%
21 | Cl.OC[C@H]1NC[C@H](O)[C@@H](O)[C@H]1O [Migalastat] | 99.4%
22 | OCCN1C[C@H](O)[C@@H](O)[C@H](O)[C@H]1CO [Miglitol] | 86.9%
23 | CCCCCCCCCCCCC/C=C/[C@@H](O)[C@H](CO)N(C)C [N,N-Dimethylsphingosine] | 103%
24 | CCCCCCCNC=O [N-Heptyl-Formamide] | 98.9%

Same assay, conditions: 1000 nM; 72 h

Row | Structure (SMILES) | cell viability
25 | O=C(Oc1ccc([N+](=O)[O-])cc1)N1CCC(C(O)(c2ccc3c(c2)OCO3)c2ccc3c(c2)OCO3)CC1 [JZL184] | 90.5%
26 | O=C1N[C@@H]2[C@@H](O)[C@@H](O)[C@H](O)[C@@H](CO)N2C1=O [Kifunensine] | 83.4%
27 | CC(C)(CCCCCCCCCCC(C)(C)CC(=O)O)CC(=O)O [MEDICA 16] | 106%
28 | Cc1nnc(-c2ccc(N3CCC(Oc4ccccc4C(F)(F)F)CC3)nn2)s1 [MF-438] | 113%
29 | CC(C)c1ccc2c(c1)c(SC(C)(C)C)c(CC(C)(C)C(=O)O)n2Cc1ccc(Cl)cc1 [MK-886] | 94.9%
30 | O=C(CCl)N(CCCNC(=O)C(F)(F)F)c1ccc([N+](=O)[O-])cc1 [ML175] | 81.3%
31 | CN(C)C(=N)NC(=N)N [Metformin] | 110%
32 | Cl.OC[C@H]1NC[C@H](O)[C@@H](O)[C@H]1O [Migalastat] | 98.1%
33 | OCCN1C[C@H](O)[C@@H](O)[C@H](O)[C@H]1CO [Miglitol] | 98.3%
34 | CCCCCCCCCCCCC/C=C/[C@@H](O)[C@H](CO)N(C)C [N,N-Dimethylsphingosine] | 102%
35 | CCCCCCCNC=O [N-Heptyl-Formamide] | 107%

Same assay, conditions: 10000 nM; 72 h

Row | Structure (SMILES) | cell viability
36 | O=C(Oc1ccc([N+](=O)[O-])cc1)N1CCC(C(O)(c2ccc3c(c2)OCO3)c2ccc3c(c2)OCO3)CC1 [JZL184] | 85.8%
37 | O=C1N[C@@H]2[C@@H](O)[C@@H](O)[C@H](O)[C@@H](CO)N2C1=O [Kifunensine] | 96.2%
38 | CC(C)(CCCCCCCCCCC(C)(C)CC(=O)O)CC(=O)O [MEDICA 16] | 97.8%
39 | Cc1nnc(-c2ccc(N3CCC(Oc4ccccc4C(F)(F)F)CC3)nn2)s1 [MF-438] | 97.5%
40 | CC(C)c1ccc2c(c1)c(SC(C)(C)C)c(CC(C)(C)C(=O)O)n2Cc1ccc(Cl)cc1 [MK-886] | 91.5%
41 | O=C(CCl)N(CCCNC(=O)C(F)(F)F)c1ccc([N+](=O)[O-])cc1 [ML175] | -0.456%
42 | CN(C)C(=N)NC(=N)N [Metformin] | 88.5%
43 | Cl.OC[C@H]1NC[C@H](O)[C@@H](O)[C@H]1O [Migalastat] | 98.5%
44 | OCCN1C[C@H](O)[C@@H](O)[C@H](O)[C@H]1CO [Miglitol] | 96%
45 | CCCCCCCCCCCCC/C=C/[C@@H](O)[C@H](CO)N(C)C [N,N-Dimethylsphingosine] | 55%
46 | CCCCCCCNC=O [N-Heptyl-Formamide] | 91.7%

System: SHI-1
Test: as above
Conditions: 1 nM; 72 h
Summary of the method: as §1

Row | Structure (SMILES) | cell viability
47 | O=C(Oc1ccc([N+](=O)[O-])cc1)N1CCC(C(O)(c2ccc3c(c2)OCO3)c2ccc3c(c2)OCO3)CC1 [JZL184] | 110%
48 | O=C1N[C@@H]2[C@@H](O)[C@@H](O)[C@H](O)[C@@H](CO)N2C1=O [Kifunensine] | 96.9%
49 | CC(C)(CCCCCCCCCCC(C)(C)CC(=O)O)CC(=O)O [MEDICA 16] | 121%
50 | Cc1nnc(-c2ccc(N3CCC(Oc4ccccc4C(F)(F)F)CC3)nn2)s1 [MF-438] | 98.9%
51 | CC(C)c1ccc2c(c1)c(SC(C)(C)C)c(CC(C)(C)C(=O)O)n2Cc1ccc(Cl)cc1 [MK-886] | 108%
52 | O=C(CCl)N(CCCNC(=O)C(F)(F)F)c1ccc([N+](=O)[O-])cc1 [ML175] | 95%
53 | CN(C)C(=N)NC(=N)N [Metformin] | 103%
54 | Cl.OC[C@H]1NC[C@H](O)[C@@H](O)[C@H]1O [Migalastat] | 113%
55 | OCCN1C[C@H](O)[C@@H](O)[C@H](O)[C@H]1CO [Miglitol] | 102%
56 | CCCCCCCCCCCCC/C=C/[C@@H](O)[C@H](CO)N(C)C [N,N-Dimethylsphingosine] | 101%
57 | CCCCCCCNC=O [N-Heptyl-Formamide] | 109%

Same assay, conditions: 10 nM; 72 h

Row | Structure (SMILES) | cell viability
58 | O=C(Oc1ccc([N+](=O)[O-])cc1)N1CCC(C(O)(c2ccc3c(c2)OCO3)c2ccc3c(c2)OCO3)CC1 [JZL184] | 97.9%
59 | O=C1N[C@@H]2[C@@H](O)[C@@H](O)[C@H](O)[C@@H](CO)N2C1=O [Kifunensine] | 99.9%
60 | CC(C)(CCCCCCCCCCC(C)(C)CC(=O)O)CC(=O)O [MEDICA 16] | 104%
61 | Cc1nnc(-c2ccc(N3CCC(Oc4ccccc4C(F)(F)F)CC3)nn2)s1 [MF-438] | 98.2%
62 | CC(C)c1ccc2c(c1)c(SC(C)(C)C)c(CC(C)(C)C(=O)O)n2Cc1ccc(Cl)cc1 [MK-886] | 110%
63 | O=C(CCl)N(CCCNC(=O)C(F)(F)F)c1ccc([N+](=O)[O-])cc1 [ML175] | 127%
64 | CN(C)C(=N)NC(=N)N [Metformin] | 98.3%
65 | Cl.OC[C@H]1NC[C@H](O)[C@@H](O)[C@H]1O [Migalastat] | 96.2%
